Molecular target: AhR (Homo sapiens (Human), UniProt P35869)
Assay: ethoxyresorufin-O-deethylase (EROD) assay, AhR activation in HepG2 cells
Format: cell-based
Procedure: The human Hep G2 cell line from the Small Molecule Screening and Synthesis Facility (UWCCC, Madison, Wis.) and was maintained in DMEM medium supplemented with 10% FBS. Cells were incubated at 37° C. in a humidified atmosphere supplemented with 5% CO2.
Preparation of cells: Cells were cleaved from T75 flasks with 0.05% trypsin. The cells were then collected by spinning at 1 g for 4 min. Excess media containing trypsin was removed from the pellet, which was then re-suspended in growth media. The cells were then counted using a hemocytometer. Cells were plated in sterile 96-well clear bottom black culture plates at a density of 20,000 cells per well in 0.1 mL of media. The cells were then incubated for 24 h at 37° C. in a humidified atmosphere supplemented with 5% CO2.
The ethoxyresorufin-O-deethylase (EROD) assay was performed on cell cultures of human Hep G2 cells. Briefly, 24 h after plating, cells in 96-well plates were treated with AhR agonists and allowed to incubate for 24 h. Each well was then rinsed with 200 uL of PBS buffer twice. To each well was then added 100 uL of 150 nM solution of 7-ethoxyresurufin and allowed to incubate for 2 h. Fluorescence measurements were obtained with a Safire II micro plate reader with excitation at 520 nm with a 25 nm bandwidth and emission at 595 nm with a 20 nm bandwidth.
The bioactivity of malassezin analogs was then investigated. The well-documented ethoxyresorufin-O-deethylase (EROD) assay was used to determine the EC50 values of the compounds towards AhR activation in HepG2 cells. Donato, M. T.; Gomezlechon, M. J.; Castell, J. V. Anal. Biochem. 1993, 213, 29; van Tonder, J. J., University of Pretoria Z.A., Thesis, 2011. This assay measures the induction of cytochrome P450-1A1 (CYP1A1), which is a major outcome of AhR activation. Whyte, J. J.; Jung, R. E.; Schmitt, C. J.; Tillitt, D. E. Crit. Rev. Toxicol. 2000, 30, 347. CYP1A1 selectively converts 7-ethoxyresorufin to the fluorescent product resorufin.

Chain of AhR (P35869 11-848): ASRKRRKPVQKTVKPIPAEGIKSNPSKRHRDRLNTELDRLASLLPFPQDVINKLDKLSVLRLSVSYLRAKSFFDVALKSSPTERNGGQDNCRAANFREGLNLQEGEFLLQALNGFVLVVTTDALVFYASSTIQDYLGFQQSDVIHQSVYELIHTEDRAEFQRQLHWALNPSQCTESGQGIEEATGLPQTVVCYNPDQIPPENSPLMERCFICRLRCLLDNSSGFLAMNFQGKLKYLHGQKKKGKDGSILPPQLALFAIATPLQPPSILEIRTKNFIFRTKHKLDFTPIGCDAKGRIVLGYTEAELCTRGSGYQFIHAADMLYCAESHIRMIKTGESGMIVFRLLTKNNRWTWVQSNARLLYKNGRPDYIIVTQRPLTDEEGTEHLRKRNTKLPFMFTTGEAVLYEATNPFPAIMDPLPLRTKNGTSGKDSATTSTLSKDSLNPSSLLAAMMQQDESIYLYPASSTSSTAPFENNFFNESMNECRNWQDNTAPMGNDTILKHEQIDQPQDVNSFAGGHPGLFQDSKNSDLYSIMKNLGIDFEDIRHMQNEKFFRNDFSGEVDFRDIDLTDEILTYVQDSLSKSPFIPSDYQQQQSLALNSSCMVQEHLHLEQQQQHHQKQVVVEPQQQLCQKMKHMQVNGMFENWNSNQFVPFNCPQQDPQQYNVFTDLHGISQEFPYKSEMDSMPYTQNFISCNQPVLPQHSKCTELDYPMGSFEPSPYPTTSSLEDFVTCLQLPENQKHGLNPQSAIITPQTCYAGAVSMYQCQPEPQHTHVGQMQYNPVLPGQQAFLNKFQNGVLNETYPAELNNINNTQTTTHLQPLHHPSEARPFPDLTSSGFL

Row | AhR potency (EC50) compared with malassezin, the positive control | Compound
1 | slightly weaker agonist | O=Cc1c(Cc2c[nH]c3c(Cl)cccc23)[nH]c2ccccc12 [Compound 11b]
2 | behaved similarly to malassezin | COc1ccc2[nH]cc(Cc3[nH]c4ccccc4c3C=O)c2c1 [Compound 11c]
3 | more potent than the positive control | O=Cc1c(Cc2c[nH]c3ccc(Cl)cc23)[nH]c2ccccc12 [Compound 11a]

Row | Compound | AhR potency (EC50) compared with malassezin, the positive control
4 | Cn1cc(Cc2[nH]c3ccccc3c2C=O)c2ccccc21 [Compound 11d] | about five times lower than that of malassezin

From patent US10730833B2, “Synthesis of diindolylmethanes and indolo[3,2-b]carbazoles, compounds formed thereby, and pharmaceutical compositions containing them” (Wisconsin Alumni Research Foundation, priority 2014, dated 2020)
